Measurements reported in the supplement of paper PMC10307832.

What was measured:
Experiment in all cases: relative viability (nuclei count vs DMSO), 5 days (fraction); higher = more cells survive
Quizartinib = compound: CC(C)(C)c1cc(NC(=O)Nc2ccc(-c3cn4c(n3)sc3cc(OCCN5CCOCC5)ccc34)cc2)no1 [Quizartinib]
Method in brief: (§1)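 For viability, nuclei in each treated well were divided by nuclei in vehicle wells and the median across plates was taken. Lung cancer cell lines in 1536-well plates were pinned with five library-drug doses (not always all listed) spaced by √10, cultured 5 days without medium change, and imaged at 4× after Hoechst staining, with plates passing only at control CV below 25% and at least one doubling.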

YM155 = compound: COCC[n+]1c2c(n(Cc3cnccn3)c1C)C(=O)c1ccccc1C2=O [YM155]
Method in brief: as §1

Quizartinib + Navitoclax = compound: CC(C)(C)c1cc(NC(=O)Nc2ccc(-c3cn4c(n3)sc3cc(OCCN5CCOCC5)ccc34)cc2)no1 [Quizartinib] + CC1(C)CCC(c2ccc(Cl)cc2)=C(CN2CCN(c3ccc(C(=O)NS(=O)(=O)c4ccc(N[C@H](CCN5CCOCC5)CSc5ccccc5)c(S(=O)(=O)C(F)(F)F)c4)cc3)CC2)C1 [Navitoclax] (partner 0.5 µM)
Method in brief: (§2)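 Five library-drug doses in √10 steps were combined with a fixed anchor-drug dose, or a single drug was given alone, by pin tool to lung cancer cell lines in 1536-well plates the day after seeding. Nuclei were stained and counted after 5 days. Relative viability is the nuclei count in treated wells over that in vehicle wells, taken as the median of duplicate plates.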

Quizartinib + Foretinib = compound: CC(C)(C)c1cc(NC(=O)Nc2ccc(-c3cn4c(n3)sc3cc(OCCN5CCOCC5)ccc34)cc2)no1 [Quizartinib] + COc1cc2c(Oc3ccc(NC(=O)C4(C(=O)Nc5ccc(F)cc5)CC4)cc3F)ccnc2cc1OCCCN1CCOCC1 [Foretinib] (partner 0.25 µM)
Method in brief: as §2

Cell Line | relative viability (Quizartinib; 0.001 µM) | relative viability (Quizartinib; 0.003162 µM) | relative viability (Quizartinib; 0.01 µM) | relative viability (Quizartinib; 0.03162 µM) | relative viability (Quizartinib; 0.1 µM) | relative viability (YM155; 0.002 µM) | relative viability (YM155; 0.006325 µM) | relative viability (YM155; 0.02 µM) | relative viability (YM155; 0.06325 µM) | relative viability (Quizartinib + Navitoclax; first compound 0.001 µM) | relative viability (Quizartinib + Navitoclax; first compound 0.003162 µM) | relative viability (Quizartinib + Navitoclax; first compound 0.01 µM) | relative viability (Quizartinib + Navitoclax; first compound 0.03162 µM) | relative viability (Quizartinib + Navitoclax; first compound 0.1 µM) | relative viability (Quizartinib + Foretinib; first compound 0.003162 µM) | relative viability (Quizartinib + Foretinib; first compound 0.01 µM) | relative viability (Quizartinib + Foretinib; first compound 0.1 µM) | relative viability (Quizartinib + Foretinib; first compound 0.001 µM) | relative viability (Quizartinib + Foretinib; first compound 0.03162 µM)
HCC-15 | 0.842 | 1 | 0.978 | 0.957 | 0.963 | 0.928 | 1.11 | 0.975 | 1.02 | 0.756 | 0.652 | 0.665 | 0.689 | 0.724 | 0.978 | 0.979 | 0.952 | – | –
HCC-78 | 0.967 | 1.03 | 0.911 | 0.865 | 0.988 | 0.898 | 1.08 | 1.08 | 1.05 | 0.813 | 0.868 | 0.766 | 0.598 | 0.842 | 0.57 | 0.573 | 0.558 | 0.53 | 0.513
HCC-366 | 0.978 | 1.04 | 1.06 | 1.04 | 1.02 | 1.05 | 0.993 | 1.01 | 1.06 | 0.799 | 1.01 | 0.957 | 1.06 | 0.903 | 0.921 | 0.992 | 0.946 | 0.884 | 0.914
HCC-827 | 0.943 | 1.04 | 0.978 | 1.03 | 1.09 | 0.986 | 1.05 | 1.03 | 1.11 | 0.987 | 1.03 | 1.05 | 0.957 | 1.13 | 0.922 | 1.07 | 1.07 | 1.02 | 1.06
HOP-62 | 0.843 | 0.954 | 1.01 | 1.1 | 0.979 | 0.971 | 0.93 | 1.06 | 0.93 | 1 | 0.888 | 1.16 | 1.01 | 1.1 | 1.09 | 1.22 | 1.09 | 0.907 | 1.07
IA-LM | 0.889 | 0.992 | 1.11 | 0.924 | 0.933 | 0.864 | 0.969 | 1.04 | 0.764 | 0.836 | 0.908 | 0.776 | 0.836 | 0.718 | 1.01 | 1.17 | 1.02 | 1.05 | 1.14
LC-2-ad | 0.827 | 1.02 | 0.972 | 0.863 | 0.892 | 0.914 | 0.978 | 0.972 | 0.913 | 0.317 | 0.446 | 0.518 | 0.453 | 0.394 | 0.857 | 0.977 | 0.904 | 0.883 | –
LCLC-97TM1 | 0.771 | 0.968 | 0.918 | 0.964 | 1 | 0.791 | 0.955 | 1.04 | 0.957 | – | 0.669 | 0.489 | 0.355 | 0.413 | 0.802 | 0.906 | 0.971 | 0.889 | 0.953
